# “And” between values parts separate entries of the source, which are not always exact repeats. Identical values can stand only once.
# Legend:
# [1] = tested on: vacuoles of YCF1 transformed plants; experiment: Accumulation of GS-associated compounds in vacuoles separated from YCF1 transformed Arabidopsis
# Experimental: (§1) To Investigate that these phenomena occurred due to the fact that YCF1 proteins transport heavy metals into vacuoles, the vacuoles were separated from YCF1 transformed plants and wild-type plants, and experiments of transporting cadmium and herbicides were carried out.
# [2] = tested on: vacuoles of wild-type plants; experiment: Accumulation of GS-associated compounds in vacuoles separated from wild-type Arabidopsis
# Experimental: as §1
# Arabidopsis plants = experiment: Growth of Arabidopsis plants in the presence of noxious materials; assay type: in vivo, Arabidopsis thaliana; settings: 60 μM pentavalent arsenic three weeks, 60 μM CDNB two months
# YCF1 Arabidopsis plants = experiment: Accumulation of heavy metals in transformed Arabidopsis plants; assay type: in vivo, Arabidopsis thaliana; settings: three weeks
# Experimental: YCF1 Arabidopsis plants obtained in Example 5 and wild-type Arabidopsis transformed with empty vector, PBI, were cultivated in 1/2 MS media containing lead (0.75 mM) and cadmium (70 μM) for three weeks to investigate accumulation of heavy metals.
# yeast = experiment: Growth of yeast on lead or cadmium-containing media; assay type: cell-based, Saccharomyces cerevisiae; settings: for Growth of ycf1-YCF1 yeast in media containing lead or cadmium: 1.8 mM lead or 50 uM cadmium, galactose media; for Growth of ycf1 mutant yeast as compared with wild-type yeast: 3 mM lead or 0.1 mM cadmium, three days
# Experimental: Wild-type yeast (DTY 165) and ycf1 mutant yeast (DTY 167, MATa ura3 leu2 his3 trp3 lys2 suc2 ycf::hisG) were cultured in YPD liquid media (1% yeast extract, 2% peptone, 2% dextrose) at 30° C. until OD600 reached 1-2, and then yeast cells of the same number (1×10^2, 1×10^3, 1×10^4 or 1×10^5) were cultured in half-diluted YPD solid media containing 3 mM lead at 30° C. for three days. Likewise, they were also cultured in half-diluted YPD solid media containing 0.1 mM cadmium.
# The ycf1-pESC yeast, wt-pESC yeast, and ycf1-YCF1 yeast 25 constructed above were each cultured in galactose media (2% galactose, 1% of 0.17% YNB, 0.13% dropout powder, 0.5% ammonium sulfate) to which 1.8 mM lead was added, or in galactose media to which 50 uM of cadmium was added. Control group was cultured in galactose media without heavy metals. Growth degree of each of the recombinant ycf1-pESC yeast, wt-pESC yeast, and ycf1-YCF1 yeast in lead or cadmium-containing media is shown in the photographs of FIG. 2.
# Resistance to lead in wt-v yeast, yhl035c-v yeast, and YHL035C yeast was tested according to methods substantially similar to the above Example 3-2.
# [3] = tested on: ycf1-pESC yeast, wt-pESC yeast, ycf1-YCF1 yeast; experiment: Heavy metal content of recombinant yeasts by atomic absorption spectrometer; assay type: cell-based, Saccharomyces cerevisiae; settings: one day
# Experimental: Three kinds of yeasts (ycf1-pESC yeast, wt-pESC yeast, and ycf1-YCF1 yeast) were each cultured in 1/2 galactose solid media containing 1.5 mM lead or 15 uM cadmium for one day, and the cultured yeasts were scraped for harvest. The harvested yeasts were put into 1 ml of concentrated nitric acid, digested for 200° C. for about 6 hours, and then diluted with 10 ml of 0.5 N nitric acid, and the amount of heavy metals contained in the yeasts was measured using an atomic absorption spectrometer (AAS). The measurement results for ycf1-pESC yeast, wt-pESC yeast, and ycf1-YCF1 yeast are represented by graph In FIG. 3.
# poplar = experiment: Growth of poplar plants in the presence of lead; assay type: in vivo, Populus alba ×P. glandulosa
# Experimental: The leaf fragments and stalks of YCF1 poplar plants prepared in Example 5 were mounted on callus-inducible media containing 500 ppm of lead, and cultivated for two weeks to Investigate the difference In their growth. As a control, wild-type poplar plants, which were not transformed, were treated in the same manner, and the results of the experiments are shown in FIG. 10.
# YHL035C transformed poplar plants prepared in Example 5 were transferred to a pot and allowed to grow into pot seedlings. These pot seedlings were transferred to soil that was dipped into a solution containing 500 ppm of […].
# [4] = YCF1 transformed vacuoles, +MgATP
smiles,measurement,setting,value
N[C@@H](CCC(=O)N[C@@H](CSc1ccc([N+](=O)[O-])cc1[N+](=O)[O-])C(=O)NCC(=O)O)C(=O)O [DNB − GS],Accumulation in YCF1 transformants relative to wild-type (in words),[1]; +MgATP,a little higher accumulation than wild-type
same,"Accumulation in the vacuoles, YCF1 Transformed Plants, +MgATP",[1]; [4],33 ± 1.2 pmol/1 ul vacuole/20 min
same,"Accumulation in the vacuoles, YCF1 Transformed Plants, −MgATP","[1]; YCF1 transformed vacuoles, −MgATP",24 ± 0.9 pmol/1 ul vacuole/20 min
same,"Accumulation in the vacuoles, Wild-type Plants, +MgATP",[2],28 ± 1.3 pmol/1 ul vacuole/20 min
same,"Accumulation in the vacuoles, Wild-type Plants, −MgATP",[2]; −MgATP,21 ± 1.1 pmol/1 ul vacuole/20 min
N[C@@H](CCC(=O)N[C@@H](CS)C(=O)NCC(=O)O)C(=O)O [GSH],"Accumulation in the vacuoles, YCF1 Transformed Plants, +MgATP",[1]; [4],69 ± 1.1 pmol/1 ul vacuole/20 min
same,"Accumulation in the vacuoles, Wild-type Plants, +MgATP",[2],70 ± 2.2 pmol/1 ul vacuole/20 min
[Cd] [cadmium],Growth of wild-type Arabidopsis,Arabidopsis plants; cadmium various concentrations,more chlorosis in leaves
same,Accumulation of cadmium in YCF1 Arabidopsis plants relative to PBI,YCF1 Arabidopsis plants; 70 μM cadmium,2 fold and 3 fold
same,Growth of ycf1-YCF1 yeast in media containing lead or cadmium,yeast,grew better than ycf1-pESC yeast or wt-pESC yeast
same,Growth of ycf1 mutant yeast as compared with wild-type yeast,yeast,grew little
same,Accumulation of cadmium in wt-pESC yeast and ycf1-YCF1 yeast compared with ycf1-pESC yeast,[3]; 15 uM cadmium,high accumulation
[Pb] [lead],Growth of YCF1 Arabidopsis,Arabidopsis plants; lead three weeks,less chlorosis In leaves and better growth of roots
same,Accumulation of lead in YCF1 Arabidopsis plants relative to PBI,YCF1 Arabidopsis plants; 0.75 mM lead,2 fold and 1.4 fold
same,Sensitivity of yhl035c-v yeast,yeast; 1.8 mM lead,more sensitive than wt-v yeast
same,Growth of ycf1-YCF1 yeast in media containing lead or cadmium,yeast,grew better than ycf1-pESC yeast or wt-pESC yeast
same,Growth of ycf1 mutant yeast as compared with wild-type yeast,yeast,decreased
same,Accumulation of lead in wt-pESC yeast and ycf1-YCF1 yeast relative to ycf1-pESC yeast,[3]; 1.5 mM lead,~2 fold
same,Growth in stalk pieces of YCF1 poplar relative to wild-type,"poplar; 500 ppm of lead, two weeks",~2 fold
same,Growth of YHL035C transformant poplar in soil containing lead,"poplar; 500 ppm, four weeks",grew much better than the wild-type
same,Growth of wild-type poplar in soil containing lead,"poplar; 500 ppm, four weeks",grew poorly

# — patent US7358417B2, “Transgenic organism expressing fungal MRP-like ABC transporters” (priority 2001, dated 2008)
